Test [1] relates to Motor activity (apomorphine hydrochloride). Nature of the test: Antiapomorphine effect, Experiment 1: motor activity (Automex) after apomorphine. Particulars: 30 mg/kg intraperitoneal, 30 min before 0.5 mg/kg s.c. apomorphine hydrochloride, activity during 30 minutes, control 566. It counts as in vivo, male dd mice. Here is the method: (§1) Antiapomorphine effect was measured by the following methods.
Motor activity was measured with Automex (Columbus Instruments, U.S.A.) in two groups of 3 male dd mice. Thirty minutes after intraperitoneal administration of each test compound (30 mg/kg), 0.5 mg/kg of apomorphine hydrochloride was injected subcutaneously. Immediately after the apomorphine injection, the animals were placed in the transparent plastic cage (26×42×20 cm) and motor activity during 30 minutes was measured. Student's was calculated to indicate the level of significance of the change from control.

Test [2] has the same test system. As to the kind of experiment: Antiapomorphine effect, Experiment 2: motor activity (Animex) after apomorphine, ED50. The class given is in vivo, male dd mice. Particulars: Mus musculus, read-out: ED50 (dose which reduced the motor activity by 50% as compared with control). Here is the method: as §1
Motor activity was measured with Animex (Columbus Instruments, U.S.A.) in three groups of 5 male dd mice. Sixty minutes after oral administration of each test compound, 0.5 mg/kg of apomorphine hydrochloride was injected subcutaneously. The measurement of motor activity during 20 minutes started just after the apomorphine injection. ED50 was determined graphically as the dose which reduced the motor activity by 50% as compared with control.

Read-outs that look alike come from different tables or passages of the source.

On to `O=c1[nH]c2cc(Cl)ccc2n1C1CCN(CC2CCC(c3ccc(F)cc3)O2)CC1` (stereo not shown) [H], for which, in test [1], the “Motor Activity” value is 5. Besides, the median effective dose (ED50) in test [2] (po) stood at 12 mg/kg.
In the same order, the values of `O=c1[nH]c2cc(Cl)ccc2n1C1CCN(CC2COC(c3ccc(F)cc3)C2)CC1` (stereo not shown) [E] are 23 and 0.4 mg/kg.
Regarding `O=C1CCN(C2CCN(CC3COC(c4ccc(F)cc4)C3)CC2)C(=O)N1c1ccccc1` (stereo not shown) [D], the “Motor Activity” value in test [1] was 28. Besides, the 50% effective dose (ED50) in test [2] (Experiment 2, oral, 60 min before 0.5 mg/kg s.c. apomorphine hydrochloride, activity during 20 minutes) is 25 mg/kg.
As for `O=c1[nH]c2cc(Cl)ccc2n1C1CCN(C[C@@H]2CO[C@H](c3ccc(F)cc3)C2)CC1` (relative stereo) [F], the “Motor Activity” value in test [1] is given as 5. Moreover, the ED50 in test [2] (po) was determined as 2.4 mg/kg.
As for `O=c1[nH]c2cc(Cl)ccc2n1C1CCN(C[C@H]2CO[C@H](c3ccc(F)cc3)C2)CC1` (relative stereo) [G], the “Motor Activity” value in test [1] is recorded as 8. Moreover, in test [2] (po), the ED50 was 0.9 mg/kg.
With `O=C1NCN(c2ccccc2)C12CCN(CC1COC(c3ccc(F)cc3)C1)CC2` (stereo not shown) [C], the “Motor Activity” value in test [1] is reported as 0. In test [2] (po), the ED50 turned out to be 1.4 mg/kg.
In the case of `Fc1ccc(C2CC(CN3CCC(n4c(=S)[nH]c5ccccc54)CC3)CO2)cc1` (stereo not shown) [A], the “Motor Activity” value in test [1] is recorded as 1. Besides, the ED50 in test [2] (po) is 3.2 mg/kg.
For `O=c1[nH]c2ccccc2n1C1CCN(CC2COC(c3ccc(F)cc3)C2)CC1` (stereo not shown) [B], in that order: 4 and 2.8 mg/kg.

The term ED50 denotes the dose that gives a 50% effect, or the effect in half of the subjects.
